From PubChem BioAssay (NCI)
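Protocol summary: plate cells (96-well), add compound at 5 concentrations, incubate 48 h, interpolate endpoints linearly. At the GI50, growth is halved. At the TGI there is no net growth.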

Key:
Experiment in all cases: NCI anticancer screen, dose series, 48 h
DMS 114 small cell lung = tested on: DMS 114 small cell lung
DMS 273 small cell lung = tested on: DMS 273 small cell lung
XF 498 CNS = tested on: XF 498 CNS
DLD-1 colon = tested on: DLD-1 colon
MDA-N = tested on: MDA-N
T-47D breast = tested on: T-47D breast
MCF7 breast = tested on: MCF7 breast
HOP-18 NSCLC = tested on: HOP-18 NSCLC

Row | Compound | TGI (DMS 114 small cell lung) [µM] | TGI (DMS 273 small cell lung) [µM] | TGI (DLD-1 colon) [µM] | TGI (T-47D breast) [µM] | TGI (MCF7 breast) [µM] | GI50 (T-47D breast) [µM] | GI50 (MCF7 breast) [µM] | also measured
1 | Nc1c(-c2cn(Cc3ccccc3)c3ccccc23)[n+]([O-])c2ccccc2[n+]1[O-] | > 100 | 81.8 | > 100 |  |  |  |  | TGI (XF 498 CNS): 78.1 µM
2 | C=CC(=O)NCCSCCCOC1(C(=O)O)CC(O)C(NC(C)=O)C(C(O)C(O)CO)O1 (stereo unspecified) | > 100 | > 100 | > 100 |  |  |  |  | TGI (XF 498 CNS): > 100 µM
3 | Nc1cc(F)ccc1CC(=O)O |  |  |  | > 100 | > 100 |  |  | TGI (MDA-N): > 100 µM
4 | O=S(=O)([O-])c1ccc(N=Cc2ccccc2[O-])cc1.O=S(=O)([O-])c1ccc(N=Cc2ccccc2[O-])cc1.[O]=[U+2]=[O] | > 100 | > 100 | > 100 |  |  |  |  | GI50 (HOP-18 NSCLC): > 100 µM; TGI (HOP-18 NSCLC): > 100 µM; GI50 (DMS 114 small cell lung): 33.1 µM; GI50 (DMS 273 small cell lung): > 100 µM; GI50 (XF 498 CNS): > 100 µM; TGI (XF 498 CNS): > 100 µM; GI50 (DLD-1 colon): 67.9 µM
5 | COC(=O)/C(=N\NC(N)=O)C(C(=O)C(=O)Nc1ccccc1OC)c1nc2ccc([N+](=O)[O-])cc2[nH]c1=O (stereo unspecified) |  |  |  | > 100 | > 100 |  |  | TGI (MDA-N): > 100 µM
6 | COc1ccccc1NC(=O)C1=C(C)NC(C)=C(C(=O)Nc2ccccc2OC)C1C1=CC=COC1 | 35.7 | 29.1 | 45.3 |  |  |  |  | TGI (HOP-18 NSCLC): > 100 µM
7 | COc1ccc(OC(C)=O)c2c1CCC=CC2=O | 36.8 | 33.8 |  |  |  |  |  | TGI (XF 498 CNS): 31 µM
8 | C=C=C(C(=O)OC)S(=O)c1ccccc1[N+](=O)[O-] (stereo unspecified) | > 100 | > 100 |  |  |  |  |  | TGI (HOP-18 NSCLC): > 100 µM; TGI (XF 498 CNS): > 100 µM
9 | COC(=O)C(Cc1nc2ccccc2[nH]c1=O)/C(=N\NC(C)(C)C)C(=O)Nc1c(C)cc(Br)cc1C (stereo unspecified) | 68.8 |  | 48.8 |  |  |  |  | 
10 | COc1cccc2ccc(C(=O)c3ccccc3)nc12 |  | > 100 | > 100 |  |  |  |  | TGI (XF 498 CNS): > 100 µM
11 | O=C(O)/C=C/C(=O)N1Cc2cc3ccccc3nc2C1 |  |  |  | > 100 | > 100 |  |  | TGI (MDA-N): > 100 µM
12 | O=C1/C(=N\O)c2ccccc2S1(=O)=O | > 100 | > 100 | > 100 |  |  |  |  | TGI (HOP-18 NSCLC): > 100 µM
13 | Cc1c(O)c2ccccc2oc1=O |  |  |  | > 100 | > 100 |  |  | TGI (MDA-N): > 100 µM
14 | CC(C)N1CC2CN(Cc3ccccc3)CC(C1)C2=O |  |  |  |  | > 100 |  |  | TGI (MDA-N): > 100 µM
15 | CCOC(=O)c1ccc2c(c1)Cc1cc([N+](=O)[O-])ccc1-2 |  |  |  | > 100 | 71.2 |  |  | TGI (MDA-N): > 100 µM
16 | CO/C=C/C(=O)c1cc2cnc3c(=N)cc(NC(=O)C(C)C)c([nH]1)c23 |  |  |  | 0.0439 | 1.25 | 0.00998 | 0.0182 | 
17 | CCCCCCCCOCC(O)COC(C)C (stereo unspecified) |  | 34.7 | > 100 |  |  |  |  | TGI (HOP-18 NSCLC): > 100 µM
18 | CC(C)(C)N1CCC1CN (stereo unspecified) |  |  |  | > 100 | > 100 | > 100 | > 100 | 
19 | N.N.NCCCCCN.O=C([O-])CCl.O=C([O-])CCl.O=C([O-])CCl.O=C([O-])CCl.[Pt+4].[Pt+4] |  | > 100 | > 100 |  |  |  |  | GI50 (HOP-18 NSCLC): 6.51 µM; TGI (HOP-18 NSCLC): > 100 µM; GI50 (DMS 273 small cell lung): 1.29 µM; GI50 (DLD-1 colon): 19 µM
20 | CSc1ccc(-c2ccccc(=O)c2O)cc1 |  |  |  | > 100 | > 100 | 0.985 | 0.322 | 
21 | C=C1CC2CCCC12C=O (stereo unspecified) |  |  |  | > 10 | > 10 |  |  | TGI (MDA-N): > 10 µM
22 | CSC1=Nc2c(c(C)c(-c3ccccc3)n2CCCN2CCCCC2)C2=NC(=O)C[C@H](C)N12 |  |  |  | 8.53 | 11.3 | 2.28 | 2.72 | 
23 | C[C@]12CCc3nc(Nc4cccc(O)c4)sc3C1=CC[C@@H]1[C@@H]2CC[C@]2(C)/C(=N\NC(N)=S)CC[C@@H]12 |  |  |  | 4.41 | 3.13 | 1.83 | 1.52 | 
24 | Cc1ccc(S(=O)(=O)c2ccc(NC(=O)SCCC(=O)O)cc2)cc1 | > 100 | > 100 | > 100 |  |  |  |  | 
25 | CCOC(=O)[C@@H](C)C[C@H](Cc1ccccc1)NC(=O)c1nc([C@@H](C[C@H](C(C)C)N(C)C(=O)[C@@H](NC(=O)[C@H]2CCCCN2C)C(C)C)OC(C)=O)sc1CCOCc1ccccc1 |  |  |  | > 11.1 | 4.33 | 0.0721 | 0.0404 | 
26 | CC[C@@H]1[C@@H](C)O[C@@](O)([C@@H](C)[C@H](O)[C@H](C)[C@H]2OC(=O)/C=C/C=C/[C@H](C)[C@@H]([C@@H](C)[C@@H](O)[C@H](C)[C@@]3(O)C[C@@H](O[C@H]4C[C@@H](O)[C@H](O)C(C)O4)[C@H](CC)[C@@H](C)O3)OC(=O)/C=C/C=C/[C@@H]2C)C[C@H]1O[C@@H]1C[C@@H](O)[C@H](O)C(C)O1 (stereo partly specified) |  |  |  | 0.34 | 0.287 | 0.0949 | 0.0843 | 
27 | Cc1ccc(Cl)cc1Nc1nc(C(F)(F)F)ccc1C(=O)N/N=C/c1cccnc1 |  |  |  | 20.8 | 13.9 | 3.16 | 2.45 | 
28 | Cc1cccc(-c2[nH]ncc2-c2ccc3ncccc3n2)n1 |  |  |  | > 23.9 | > 25 | 7.07 | 8.48 | 
